System: 935938-334-R-J1-PDC spheroids with HUVEC/MSC, viability
Test: Anticancer human tumor 935938-334-R-J1-PDC patient-derived small intestine adenocarcinoma cell line growth inhibition [PI3K]
Details: for IC50: curve of first compound; for viability, T/C: stronger effect = lower value; active means viability on the fitted dose curve at most 10% of control; inactive means the rest
Outline: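 High-throughput combination screen: PI3K inhibitors crossed with targeted small molecules on complex spheroids of tumor cells, HUVEC and MSCs at 37 degrees C, 5% CO2. Top concentration was at or near clinical Cmax (otherwise 10 microM), with half-log decrements.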

[1] = second compound 0.0316 µM, first compound 0.0316 µM
[2] = second compound 0.0316 µM, first compound 0.1 µM
[3] = second compound 0.0316 µM, first compound 0.316 µM
[4] = second compound 0.0316 µM, first compound 1 µM
[5] = second compound 0.0316 µM, first compound 3.16 µM
[6] = second compound 0.0316 µM, first compound 10 µM
[7] = second compound 0.1 µM, first compound 0.0316 µM
[8] = second compound 0.1 µM, first compound 0.1 µM
[9] = second compound 0.1 µM, first compound 0.316 µM
[10] = second compound 0.1 µM, first compound 1 µM
[11] = second compound 0.1 µM, first compound 3.16 µM
[12] = second compound 0.1 µM, first compound 10 µM
[13] = second compound 0.316 µM, first compound 0.0316 µM
[14] = second compound 0.316 µM, first compound 0.1 µM
[15] = second compound 0.316 µM, first compound 0.316 µM
[16] = second compound 0.316 µM, first compound 1 µM
[17] = second compound 0.316 µM, first compound 3.16 µM
[18] = second compound 0.316 µM, first compound 10 µM
[19] = second compound 1 µM, first compound 0.0316 µM
[20] = second compound 1 µM, first compound 0.1 µM
[21] = second compound 1 µM, first compound 0.316 µM
[22] = second compound 1 µM, first compound 1 µM
[23] = second compound 1 µM, first compound 3.16 µM
[24] = second compound 1 µM, first compound 10 µM
[25] = second compound 3.16 µM, first compound 0.0316 µM
[26] = second compound 3.16 µM, first compound 0.1 µM
[27] = second compound 3.16 µM, first compound 0.316 µM
[28] = second compound 3.16 µM, first compound 1 µM
[29] = second compound 3.16 µM, first compound 3.16 µM
[30] = second compound 3.16 µM, first compound 10 µM
[31] = second compound 10 µM, first compound 0.0316 µM
[32] = second compound 10 µM, first compound 0.1 µM
[33] = second compound 10 µM, first compound 0.316 µM
[34] = second compound 10 µM, first compound 1 µM
[35] = second compound 10 µM, first compound 3.16 µM
[36] = second compound 10 µM, first compound 10 µM
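Further: compound exposure lasted seven days before viability was read.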
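Wherever viability, T/C is given: percent of vehicle DMSO treated spheroid viability so 100% = untreated.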

C=CC(=O)N1CCN(c2nc(=O)n(-c3c(C)ccnc3C(C)C)c3nc(-c4c(O)cccc4F)c(F)cc23)C(C)C1 (centres undefined) + Cc1nc(NC(=O)N2CCCC2C(N)=O)sc1-c1ccnc(C(C)(C)C(F)(F)F)c1
> 10000 nM: IC50 (second compound 0.0316 µM) | IC50 (second compound 0.1 µM) | IC50 (second compound 0.316 µM) | IC50 (second compound 1 µM) | IC50 (second compound 3.16 µM)
inactive: viability, T/C [1] 73% | viability, T/C [2] 92.1% | viability, T/C [3] 88% | viability, T/C [4] 98.7% | viability, T/C [5] 85.7% | viability, T/C [6] 86.8% | viability, T/C [7] 79.2% | viability, T/C [8] 76.2% | viability, T/C [9] 91.2% | viability, T/C [10] 60.7% | viability, T/C [11] 79.5% | viability, T/C [12] 95.8% | viability, T/C [13] 91% | viability, T/C [14] 96% | viability, T/C [15] 74.2% | viability, T/C [16] 69.5% | viability, T/C [17] 72.7% | viability, T/C [18] 92.3% | viability, T/C [19] 68.4% | viability, T/C [20] 64% | viability, T/C [21] 60.5% | viability, T/C [22] 68.7% | viability, T/C [23] 77.3% | viability, T/C [24] 47.4% | viability, T/C [25] 48.4% | viability, T/C [26] 55.1% | viability, T/C [27] 45.1% | viability, T/C [28] 57.1% | viability, T/C [29] 64.7% | viability, T/C [30] 42.5% | viability, T/C [31] 43.2% | viability, T/C [32] 40.1% | viability, T/C [33] 47.3% | viability, T/C [34] 36.5% | viability, T/C [35] 35% | viability, T/C [36] 32.2%
< 31.6 nM: IC50 (second compound 10 µM)

CC(C)NCC(C(=O)N1CCN(c2ncnc3c2C(C)CC3O)CC1)c1ccc(Cl)cc1 (centres undefined) + Cc1nc(NC(=O)N2CCCC2C(N)=O)sc1-c1ccnc(C(C)(C)C(F)(F)F)c1
inactive: viability, T/C [1] 80.2% | viability, T/C [2] 104% | viability, T/C [3] 75.9% | viability, T/C [4] 61.5% | viability, T/C [5] 44.3% | viability, T/C [6] 37.4% | viability, T/C [7] 89.2% | viability, T/C [8] 101% | viability, T/C [9] 82.5% | viability, T/C [10] 50.5% | viability, T/C [11] 61% | viability, T/C [12] 44.2% | viability, T/C [13] 94.7% | viability, T/C [14] 80.5% | viability, T/C [15] 86.2% | viability, T/C [16] 55.8% | viability, T/C [17] 49.4% | viability, T/C [18] 38.5% | viability, T/C [19] 70% | viability, T/C [20] 67.4% | viability, T/C [21] 72.8% | viability, T/C [22] 54.4% | viability, T/C [23] 33.6% | viability, T/C [24] 35.8% | viability, T/C [25] 74.9% | viability, T/C [26] 43% | viability, T/C [27] 46.5% | viability, T/C [28] 52.8% | viability, T/C [29] 39.9% | viability, T/C [30] 27.8% | viability, T/C [31] 47.9% | viability, T/C [32] 52.5% | viability, T/C [33] 51% | viability, T/C [34] 35.9% | viability, T/C [35] 39.3% | viability, T/C [36] 32.2%
1840 nM: IC50 (second compound 0.316 µM)
79.6 nM: IC50 (second compound 3.16 µM)
> 10000 nM: IC50 (second compound 0.1 µM)
1290 nM: IC50 (second compound 1 µM)
328 nM: IC50 (second compound 10 µM)
2020 nM: IC50 (second compound 0.0316 µM)

From PubChem BioAssay AID1963966 (Molecular Pharmacology Branch, DTP, NCI, 2024)
